# Experiments:
# [1] = compound: Cc1ccc(C(=O)Nc2ccc(CN3CCN(C)CC3)c(C(F)(F)F)c2)cc1C#Cc1cnc2cccnn12 [Ponatinib] + CC1(C)CCC(c2ccc(Cl)cc2)=C(CN2CCN(c3ccc(C(=O)NS(=O)(=O)c4ccc(N[C@H](CCN5CCOCC5)CSc5ccccc5)c(S(=O)(=O)C(F)(F)F)c4)cc3)CC2)C1 [Navitoclax] (partner 0.5 µM); assay: relative viability (nuclei count vs DMSO), 5 days (fraction); higher = more cells survive
# How it was run: (§1)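 Each reported value is a median over duplicate plates. It expresses relative viability: treated-well nuclei count divided by vehicle-well nuclei count. Lung cancer cell lines in 1536-well plates were dosed by pin tool a day after seeding, alone with one drug or with a fixed anchor-drug dose plus five library-drug doses (not always all listed) in √10 steps, and nuclei were counted after 5 days.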
# [2] = compound: Cc1ccc(Nc2nccc(N(C)c3ccc4c(C)n(C)nc4c3)n2)cc1S(N)(=O)=O [Pazopanib] + COc1cc2c(Oc3ccc(NC(=O)C4(C(=O)Nc5ccc(F)cc5)CC4)cc3F)ccnc2cc1OCCCN1CCOCC1 [Foretinib] (partner 0.25 µM); assay: as above
# How it was run: as §1
cell line,measurement,setting,value
NCI-H322M,relative viability,[1]; first compound 0.002 µM,1.2
same,relative viability,[1]; first compound 0.006325 µM,1.15
same,relative viability,[1]; first compound 0.06325 µM,1.3
same,relative viability,[1]; first compound 0.2 µM,0.907
same,relative viability,[2]; first compound 0.01 µM,0.908
same,relative viability,[2]; first compound 0.03162 µM,1.25
same,relative viability,[2]; first compound 0.1 µM,0.921
same,relative viability,[2]; first compound 0.3162 µM,0.966
same,relative viability,[2]; first compound 1 µM,0.93
NCI-H1975,relative viability,[1]; first compound 0.002 µM,1.18
same,relative viability,[1]; first compound 0.006325 µM,1.01
same,relative viability,[1]; first compound 0.06325 µM,1.2
same,relative viability,[1]; first compound 0.2 µM,0.915
same,relative viability,[2]; first compound 0.01 µM,0.911
same,relative viability,[2]; first compound 0.03162 µM,0.945
same,relative viability,[2]; first compound 0.1 µM,0.997
same,relative viability,[2]; first compound 0.3162 µM,1.03
same,relative viability,[2]; first compound 1 µM,1.03
NCI-H2170,relative viability,[1]; first compound 0.002 µM,0.643
same,relative viability,[1]; first compound 0.006325 µM,0.661
same,relative viability,[1]; first compound 0.06325 µM,0.684
same,relative viability,[1]; first compound 0.2 µM,0.765
same,relative viability,[2]; first compound 0.01 µM,1.06
same,relative viability,[2]; first compound 0.03162 µM,1.08
same,relative viability,[2]; first compound 0.1 µM,1.01
same,relative viability,[2]; first compound 0.3162 µM,1.02
same,relative viability,[2]; first compound 1 µM,1.07
LU99A,relative viability,[1]; first compound 0.002 µM,0.715
same,relative viability,[1]; first compound 0.006325 µM,0.832
same,relative viability,[1]; first compound 0.06325 µM,0.886
same,relative viability,[1]; first compound 0.2 µM,0.77
same,relative viability,[2]; first compound 0.01 µM,0.772
same,relative viability,[2]; first compound 0.03162 µM,0.906
same,relative viability,[2]; first compound 0.1 µM,0.878
same,relative viability,[2]; first compound 0.3162 µM,0.864
same,relative viability,[2]; first compound 1 µM,0.837
NCI-H2405,relative viability,[1]; first compound 0.002 µM,0.855
same,relative viability,[1]; first compound 0.006325 µM,0.917
same,relative viability,[1]; first compound 0.06325 µM,0.844
same,relative viability,[1]; first compound 0.2 µM,0.62
same,relative viability,[2]; first compound 0.01 µM,0.997
same,relative viability,[2]; first compound 0.03162 µM,1.13
same,relative viability,[2]; first compound 0.1 µM,1.11
same,relative viability,[2]; first compound 0.3162 µM,1.11
same,relative viability,[2]; first compound 1 µM,1.08
NCI-H2009,relative viability,[1]; first compound 0.002 µM,1.12
same,relative viability,[1]; first compound 0.006325 µM,1.07
same,relative viability,[1]; first compound 0.06325 µM,1.13
same,relative viability,[1]; first compound 0.2 µM,1.13
same,relative viability,[2]; first compound 0.01 µM,1.2
same,relative viability,[2]; first compound 0.03162 µM,1.16
same,relative viability,[2]; first compound 0.1 µM,1.19
same,relative viability,[2]; first compound 0.3162 µM,1.15
same,relative viability,[2]; first compound 1 µM,1.06
HCC-15,relative viability,[1]; first compound 0.002 µM,0.671
same,relative viability,[1]; first compound 0.006325 µM,0.738
same,relative viability,[1]; first compound 0.06325 µM,0.83
same,relative viability,[1]; first compound 0.2 µM,0.661
same,relative viability,[2]; first compound 0.01 µM,0.999
same,relative viability,[2]; first compound 0.03162 µM,1.01
same,relative viability,[2]; first compound 0.1 µM,1.16
same,relative viability,[2]; first compound 0.3162 µM,1.01
same,relative viability,[2]; first compound 1 µM,1.08
HCC-44,relative viability,[1]; first compound 0.002 µM,0.941
same,relative viability,[1]; first compound 0.006325 µM,0.98
same,relative viability,[1]; first compound 0.06325 µM,1.16
same,relative viability,[1]; first compound 0.2 µM,0.93
COR-L23,relative viability,[1]; first compound 0.002 µM,0.977
same,relative viability,[1]; first compound 0.006325 µM,0.912
same,relative viability,[1]; first compound 0.06325 µM,1
same,relative viability,[1]; first compound 0.2 µM,0.901
same,relative viability,[2]; first compound 0.01 µM,0.916
same,relative viability,[2]; first compound 0.03162 µM,1.03
same,relative viability,[2]; first compound 0.1 µM,0.922
same,relative viability,[2]; first compound 0.3162 µM,0.986
same,relative viability,[2]; first compound 1 µM,0.989
HCC-78,relative viability,[1]; first compound 0.002 µM,0.578
same,relative viability,[1]; first compound 0.006325 µM,0.725
same,relative viability,[1]; first compound 0.06325 µM,0.981
same,relative viability,[1]; first compound 0.2 µM,0.629
same,relative viability,[2]; first compound 0.01 µM,0.523
same,relative viability,[2]; first compound 0.03162 µM,0.553
same,relative viability,[2]; first compound 0.1 µM,0.524
same,relative viability,[2]; first compound 0.3162 µM,0.638
same,relative viability,[2]; first compound 1 µM,0.701
NCI-H1299,relative viability,[1]; first compound 0.002 µM,1.05
same,relative viability,[1]; first compound 0.006325 µM,1.03
same,relative viability,[1]; first compound 0.06325 µM,1.1
same,relative viability,[1]; first compound 0.2 µM,1.01
same,relative viability,[2]; first compound 0.01 µM,1.07
same,relative viability,[2]; first compound 0.03162 µM,1.06
same,relative viability,[2]; first compound 0.1 µM,1.13
same,relative viability,[2]; first compound 0.3162 µM,1.09
same,relative viability,[2]; first compound 1 µM,1.01
NCI-H838,relative viability,[1]; first compound 0.002 µM,1.1
same,relative viability,[1]; first compound 0.006325 µM,1.21
same,relative viability,[1]; first compound 0.06325 µM,1.19
same,relative viability,[1]; first compound 0.2 µM,0.979
same,relative viability,[2]; first compound 0.01 µM,0.996
same,relative viability,[2]; first compound 0.03162 µM,1.02
same,relative viability,[2]; first compound 0.1 µM,1.02
same,relative viability,[2]; first compound 0.3162 µM,1.08
same,relative viability,[2]; first compound 1 µM,1.18
NCI-H2087,relative viability,[1]; first compound 0.002 µM,0.825
same,relative viability,[1]; first compound 0.006325 µM,0.771
same,relative viability,[1]; first compound 0.06325 µM,0.864
same,relative viability,[1]; first compound 0.2 µM,0.995
same,relative viability,[2]; first compound 0.01 µM,1.27
same,relative viability,[2]; first compound 0.03162 µM,0.966
same,relative viability,[2]; first compound 0.1 µM,1.03
same,relative viability,[2]; first compound 0.3162 µM,1.13
same,relative viability,[2]; first compound 1 µM,0.796
BEN,relative viability,[1]; first compound 0.002 µM,0.0656
same,relative viability,[1]; first compound 0.006325 µM,0.0538
same,relative viability,[1]; first compound 0.06325 µM,0.0585
same,relative viability,[1]; first compound 0.2 µM,0.0666
same,relative viability,[2]; first compound 0.03162 µM,0.656
same,relative viability,[2]; first compound 0.1 µM,0.517
same,relative viability,[2]; first compound 0.3162 µM,0.804
same,relative viability,[2]; first compound 1 µM,0.696
LCLC-103H,relative viability,[2]; first compound 0.01 µM,0.651
same,relative viability,[2]; first compound 0.03162 µM,0.897
same,relative viability,[2]; first compound 0.1 µM,0.734
same,relative viability,[2]; first compound 0.3162 µM,0.819
same,relative viability,[2]; first compound 1 µM,0.894
EKVX,relative viability,[1]; first compound 0.002 µM,0.878
same,relative viability,[1]; first compound 0.006325 µM,0.907
same,relative viability,[1]; first compound 0.06325 µM,1.04
same,relative viability,[1]; first compound 0.2 µM,0.735
same,relative viability,[2]; first compound 0.01 µM,0.961
same,relative viability,[2]; first compound 0.03162 µM,0.866
same,relative viability,[2]; first compound 0.1 µM,0.62
same,relative viability,[2]; first compound 0.3162 µM,0.901
same,relative viability,[2]; first compound 1 µM,0.942
LXF-289,relative viability,[1]; first compound 0.002 µM,0.862
same,relative viability,[1]; first compound 0.006325 µM,0.957
same,relative viability,[1]; first compound 0.06325 µM,0.935
same,relative viability,[1]; first compound 0.2 µM,0.971
same,relative viability,[2]; first compound 0.01 µM,1.06
same,relative viability,[2]; first compound 0.03162 µM,1.06
same,relative viability,[2]; first compound 0.1 µM,1.08
same,relative viability,[2]; first compound 0.3162 µM,0.99
same,relative viability,[2]; first compound 1 µM,0.996
ABC-1,relative viability,[2]; first compound 0.01 µM,0.843
same,relative viability,[2]; first compound 0.03162 µM,1.06
same,relative viability,[2]; first compound 0.3162 µM,0.975
same,relative viability,[2]; first compound 1 µM,1.04
NCI-H661,relative viability,[2]; first compound 0.01 µM,0.996
same,relative viability,[2]; first compound 0.03162 µM,1.08
same,relative viability,[2]; first compound 0.1 µM,1.04
same,relative viability,[2]; first compound 0.3162 µM,1
same,relative viability,[2]; first compound 1 µM,0.995
NCI-H1650,relative viability,[1]; first compound 0.002 µM,1.1
same,relative viability,[1]; first compound 0.006325 µM,1.22
same,relative viability,[1]; first compound 0.06325 µM,1.49
same,relative viability,[1]; first compound 0.2 µM,0.999
same,relative viability,[2]; first compound 0.01 µM,1.12
same,relative viability,[2]; first compound 0.03162 µM,1.2
same,relative viability,[2]; first compound 0.1 µM,1.15
same,relative viability,[2]; first compound 0.3162 µM,1.05
same,relative viability,[2]; first compound 1 µM,1.09

# Source: the supplement of paper PMC10307832
